Reference: PubChem BioAssay AID2060889 (Molecular Pharmacology Branch, DTP, NCI, 2025)

Test system: LG0567-F671-PDC complex spheroids viability
Experiment: Anticancer human tumor LG0567-F671-PDC patient-derived lung adenocarcinoma cell line growth inhibition [RAS]
Conditions: for IC50: curve of first compound; for viability, T/C: stronger effect = lower value
From the text: RAS pathway inhibitors in Combinations in Complex Spheroids
A high-throughput screen of multi-cell type tumor spheroids was designed to identify active combinations of RAS pathway inhibitors and targeted small molecules. Complex spheroids include a stromal component modeled by human endothelial cells (HUVEC) and fibroblasts modeled by human mesenchymal stem cells (MSCs). The concentration ranges selected for each drug and investigational agent were based upon clinically achievable concentrations if the clinical Cmax of the agent was known.
Compounds. The drugs and investigational agents: abemaciclib (NSC768073), cobimetinib (NSC768068), divarasib (GDC6063, NSC841802), docetaxel (NSC628503), GDC-1971 (RLY-1971, NSC841576), gemcitabine (NSC613327), inavolisib (NSC800729), ipatasertib (NSC767898), KB-0742 (NSC834161), MRTX-1133 (NSC836407), osimertinib (NSC779217), RMC-4630 (NSC839698), RMC-6236 (NSC851965), RMC-6291 (NSC852671), Ro-3306 (NSC812927), sapanisertib (NSC764658), SN-38 (NSC673596), staurosporine (NSC755774), SY5609 (NSC837396), and tovorafenib (DAY101, NSC766906), were obtained from the National Cancer Institute (NCI) Developmental Therapeutics Program Chemical Repository. The FDA-approved anticancer drug set is available from the NCI Developmental Therapeutics Program. […] The stock solutions were prepared in dimethyl sulfoxide (DMSO, Sigma-Aldrich, St. Louis, MO, cat. D2650) at 800-fold the tested concentration and stored at -70 degrees C prior to their use. All drugs and investigational agents were tested over a range starting from a high concentration at or near the clinical Cmax and decreasing in half-log increments. If the clinical Cmax for an agent had not been determined, the highest concentration tested was 10 microM.
Cell Culture. All cells were maintained in an incubator at 37 degrees C and 5% CO2 with 95% humidity. The PDC lines were cultured according to standard operating procedures established by the NCI PDMR. All PDCs were thawed and cultured in Matrigel-coated flasks prepared with a working solution of 1X Ham's F-12 nutrient mix, without supplementation (Invitrogen, Waltham, MA, cat. 11765054), 100 U/mL penicillin-streptomycin (Invitrogen, cat. 15140122), and 2.5% Matrigel (Corning Inc., Corning, NY, cat. 354248) for the first three passages. The 362531-283-R-J2-PDC and 782815-120-R-J1-PDC lines were cultured in 6C/Colon 1B media, which includes advanced DMEM/F-12 (Thermo Fisher Scientific, cat. 12634028), 10 mM HEPES (Thermo Fisher Scientific, cat. 15630080), 1X GlutaMAX supplement (Thermo Fisher Scientific, cat. 35050061), 0.1 mg/mL primocin (InvivoGen, San Diego, CA, cat. ant-pm-2), 10% defined fetal bovine serum, heat inactivated (HyClone Laboratories Inc., Logan, UT, cat. SH30070.03HI), 50% L-WRN conditioned media (ATCC, cat. CRL-3276), 1.25 mM N-Acetyl-L-cysteine (Sigma-Aldrich, cat. A9165), 10 mM nicotinamide (Sigma-Aldrich, cat. N0636), 1X B-27 supplement (Thermo Fisher Scientific, cat. 17504044), 1X N-2 supplement (Thermo Fisher Scientific, cat. 17502048), 50 ng/mL human EGF (Thermo Fisher Scientific, cat. PHG0311), and 10 microM Y-27632 dihydrochloride (Tocris Bioscience, cat. 1254). The K12877-001-R-J1-PDC line was cultured in 6I media, which includes all 6C/Colon 1B media plus 10 ng/mL human FGF-10 (PeproTech, cat. 100-26), 1 ng/mL human FGF-2 (PeproTech, cat. 100-18B), 1 µM prostaglandin E2 (Tocris Bioscience, cat. 2296), […] hydrocortisone (Sigma-Aldrich, cat. H4001), and […] bovine insulin (Sigma-Aldrich, cat. I6634). The K86415-001-R-J1-PDC line was cultured in 6D media, which includes all 6C/Colon 1B media components minus the L-WRN conditioned media. The 485176-168-R4-J1-PDC was cultured in PANC media, which includes all 6C/Colon 1B media plus 100 ng/mL human FGF-10 (PeproTech, cat. 100-26), 500 nM SB-431542 (Selleckchem, cat. S1067), and 10 nM gastrin (Tocris Bioscience, cat. 3006). […]

[1] = second compound 0.000949 µM, first compound 0.0316 µM
[2] = second compound 0.000949 µM, first compound 0.1 µM
[3] = second compound 0.000949 µM, first compound 0.316 µM
[4] = second compound 0.000949 µM, first compound 1 µM
[5] = second compound 0.003 µM, first compound 0.0316 µM
[6] = second compound 0.003 µM, first compound 0.1 µM
[7] = second compound 0.003 µM, first compound 0.316 µM
[8] = second compound 0.003 µM, first compound 1 µM
[9] = second compound 0.00949 µM, first compound 0.0316 µM
[10] = second compound 0.00949 µM, first compound 0.1 µM
[11] = second compound 0.00949 µM, first compound 0.316 µM
[12] = second compound 0.00949 µM, first compound 1 µM
[13] = second compound 0.03 µM, first compound 0.0316 µM
[14] = second compound 0.03 µM, first compound 0.1 µM
[15] = second compound 0.03 µM, first compound 0.316 µM
[16] = second compound 0.03 µM, first compound 1 µM
[17] = second compound 0.0949 µM, first compound 0.0316 µM
[18] = second compound 0.0949 µM, first compound 0.1 µM
[19] = second compound 0.0949 µM, first compound 0.316 µM
[20] = second compound 0.0949 µM, first compound 1 µM
[21] = second compound 0.3 µM, first compound 0.0316 µM
[22] = second compound 0.3 µM, first compound 0.1 µM
[23] = second compound 0.3 µM, first compound 0.316 µM
[24] = second compound 0.3 µM, first compound 1 µM
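Also: spheroids exposed to compound for seven days before readout.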
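For IC50 in this document: luminescence signal used as a proxy for viable cells.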

Q: What does the source list for `CC(=O)OC12COC1CC(O)C1(C)C(=O)C(O)C3=C(C)C(OC(=O)C(O)C(NC(=O)OC(C)(C)C)c4ccccc4)CC(O)(C(OC(=O)c4ccccc4)C21)C3(C)C` (centres undefined) + CCn1c(-c2cccnc2C(C)OC)c2c3cc(ccc31)N1CCOC(CC(NC(=O)C(C(C)C)N(C)C(=O)C3(F)CCN(C(=O)C#CC(C)(C)N(C)C)CC3)C(=O)N3CCCC(N3)C(=O)OCC(C)(C)C2)C1?
A: IC50 (second compound 0.000949 µM): < 31.6 nM; IC50 (second compound 0.003 µM): < 31.6 nM; IC50 (second compound 0.00949 µM): < 31.6 nM; IC50 (second compound 0.03 µM): < 31.6 nM; IC50 (second compound 0.0949 µM): < 31.6 nM; IC50 (second compound 0.3 µM): < 31.6 nM; viability, T/C [1]: 12.9%; viability, T/C [2]: 10.5%; viability, T/C [3]: 11%; viability, T/C [4]: 11.9%; viability, T/C (second compound 0.000949 µM, first compound 3.16 µM): 11.6%; viability, T/C (second compound 0.000949 µM, first compound 10 µM): 8.54%; viability, T/C [5]: 13.3%; viability, T/C [6]: 11.5%; viability, T/C [7]: 11.2%; viability, T/C [8]: 11.5%; viability, T/C (second compound 0.003 µM, first compound 3.16 µM): 11.5%; viability, T/C (second compound 0.003 µM, first compound 10 µM): 9.41%; viability, T/C [9]: 11.1%; viability, T/C [10]: 10.2%; viability, T/C [11]: 12.1%; viability, T/C [12]: 10.1%; viability, T/C (second compound 0.00949 µM, first compound 3.16 µM): 11.2%; viability, T/C (second compound 0.00949 µM, first compound 10 µM): 8.58%; viability, T/C [13]: 10.2%; viability, T/C [14]: 10.9%; viability, T/C [15]: 10.7%; viability, T/C [16]: 9.38%; viability, T/C (second compound 0.03 µM, first compound 3.16 µM): 10.1%; viability, T/C (second compound 0.03 µM, first compound 10 µM): 7.46%; viability, T/C [17]: 8.76%; viability, T/C [18]: 7.61%; viability, T/C [19]: 8.1%; viability, T/C [20]: 9.57%; viability, T/C (second compound 0.0949 µM, first compound 3.16 µM): 8.69%; viability, T/C (second compound 0.0949 µM, first compound 10 µM): 6.64%; viability, T/C [21]: 7.24%; viability, T/C [22]: 6.04%; viability, T/C [23]: 6.63%; viability, T/C [24]: 6.97%; viability, T/C (second compound 0.3 µM, first compound 3.16 µM): 7.51%; viability, T/C (second compound 0.3 µM, first compound 10 µM): 5.29%

Q: Which IC50 (second compound 0.000949 µM) does the source give for `C=CC(=O)Nc1cc(Nc2nccc(-c3cn(C)c4ccccc34)n2)c(OC)cc1N(C)CCN(C)C` + CCn1c(-c2cccnc2C(C)OC)c2c3cc(ccc31)N1CCOC(CC(NC(=O)C(C(C)C)N(C)C(=O)C3(F)CCN(C(=O)C#CC(C)(C)N(C)C)CC3)C(=O)N3CCCC(N3)C(=O)OCC(C)(C)C2)C1 here?
A: Its IC50 is less than 3.16 nM.

Q: What about the IC50 (second compound 0.003 µM) of the same molecule?
A: Its IC50 is less than 3.16 nM.

Q: And the IC50 (second compound 0.00949 µM)?
A: Its IC50 is less than 3.16 nM.

Q: What about the IC50 (second compound 0.03 µM) of the same molecule?
A: Its IC50 is less than 3.16 nM.

Q: And the IC50 (second compound 0.0949 µM)?
A: The IC50 was less than 3.16 nM.

Q: And the IC50 (second compound 0.3 µM)?
A: Its IC50 is less than 3.16 nM.

Q: What about the viability, T/C (second compound 0.000949 µM, first compound 0.00316 µM) of the same molecule?
A: Its viability, T/C is 15.6%.

Q: And the viability, T/C (second compound 0.000949 µM, first compound 0.01 µM)?
A: Its viability, T/C is 14%.

Q: What about the viability, T/C [1] of the same molecule?
A: Its viability, T/C is 12.5%.

Q: And the viability, T/C [2]?
A: Its viability, T/C is 9.48%.

Q: And the viability, T/C [3]?
A: Its viability, T/C is 14.1%.

Q: What about the viability, T/C [4] of the same molecule?
A: Its viability, T/C is 3.07%.

Q: And the viability, T/C (second compound 0.003 µM, first compound 0.00316 µM)?
A: The viability, T/C was 13.4%.

Q: What about the viability, T/C (second compound 0.003 µM, first compound 0.01 µM) of the same molecule?
A: Its viability, T/C is 13.9%.

Q: And the viability, T/C [5]?
A: Its viability, T/C is 13%.

Q: And the viability, T/C [6]?
A: The viability, T/C was 9.78%.

Q: What about the viability, T/C [7] of the same molecule?
A: Its viability, T/C is 6.6%.

Q: What about the viability, T/C [8] of the same molecule?
A: The viability, T/C was 2.75%.

Q: And the viability, T/C (second compound 0.00949 µM, first compound 0.00316 µM)?
A: The viability, T/C was 20%.

Q: What about the viability, T/C (second compound 0.00949 µM, first compound 0.01 µM) of the same molecule?
A: The viability, T/C was 12.7%.

Q: And the viability, T/C [9]?
A: The viability, T/C was 11.6%.

Q: And the viability, T/C [10]?
A: The viability, T/C was 9.64%.

Q: And the viability, T/C [11]?
A: Its viability, T/C is 6.15%.

Q: And the viability, T/C [12]?
A: Its viability, T/C is 7.2%.

Q: And the viability, T/C (second compound 0.03 µM, first compound 0.00316 µM)?
A: The viability, T/C was 12%.

Q: And the viability, T/C (second compound 0.03 µM, first compound 0.01 µM)?
A: Its viability, T/C is 11.5%.

Q: And the viability, T/C [13]?
A: Its viability, T/C is 11.2%.

Q: And the viability, T/C [14]?
A: Its viability, T/C is 7.87%.

Q: What about the viability, T/C [15] of the same molecule?
A: Its viability, T/C is 5.56%.

Q: And the viability, T/C [16]?
A: The viability, T/C was 3.05%.

Q: And the viability, T/C (second compound 0.0949 µM, first compound 0.00316 µM)?
A: The viability, T/C was 10.1%.

Q: And the viability, T/C (second compound 0.0949 µM, first compound 0.01 µM)?
A: Its viability, T/C is 10.9%.

Q: What about the viability, T/C [17] of the same molecule?
A: The viability, T/C was 10.2%.

Q: What about the viability, T/C [18] of the same molecule?
A: Its viability, T/C is 9.54%.

Q: What about the viability, T/C [19] of the same molecule?
A: Its viability, T/C is 5.79%.

Q: And the viability, T/C [20]?
A: The viability, T/C was 2.57%.

Q: And the viability, T/C (second compound 0.3 µM, first compound 0.00316 µM)?
A: Its viability, T/C is 12.4%.

Q: And the viability, T/C (second compound 0.3 µM, first compound 0.01 µM)?
A: The viability, T/C was 7.87%.

Q: And the viability, T/C [21]?
A: Its viability, T/C is 7.46%.

Q: And the viability, T/C [22]?
A: The viability, T/C was 5.58%.

Q: And the viability, T/C [23]?
A: The viability, T/C was 3.92%.

Q: And the viability, T/C [24]?
A: Its viability, T/C is 2.38%.
